Assays:
Cannabinoid receptor 1 [1] = target: T1, Cannabinoid receptor 1 (Homo sapiens, UniProt P21554); test: Binding affinity towards Cannabinoid receptor 1 using CP-55940 as radioligand in HEK293 EBNA cells; assay type: cell-based
Cannabinoid receptor 2 [2] = target: T2, Cannabinoid receptor 2 (Homo sapiens, UniProt P34972); test: Binding affinity towards Cannabinoid receptor 2 using CP-55940 as radioligand in HEK293 EBNA cells; assay type: cell-based
Cannabinoid receptor 1 [3] = target: T1, Cannabinoid receptor 1; test: Binding affinity towards Cannabinoid receptor 1
Cannabinoid receptor 2 [4] = target: T2, Cannabinoid receptor 2; test: Binding affinity towards Cannabinoid receptor 2

T2 sequence (P34972 whole entry): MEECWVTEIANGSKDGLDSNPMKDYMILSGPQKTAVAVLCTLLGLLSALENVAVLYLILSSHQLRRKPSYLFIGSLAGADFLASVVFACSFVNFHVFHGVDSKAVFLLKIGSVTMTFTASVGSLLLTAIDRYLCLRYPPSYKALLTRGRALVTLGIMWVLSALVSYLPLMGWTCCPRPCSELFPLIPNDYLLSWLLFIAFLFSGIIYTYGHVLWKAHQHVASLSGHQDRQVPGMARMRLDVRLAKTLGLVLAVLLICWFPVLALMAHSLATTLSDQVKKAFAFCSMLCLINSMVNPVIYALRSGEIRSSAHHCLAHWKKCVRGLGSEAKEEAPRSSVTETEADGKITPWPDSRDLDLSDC
T1 sequence (P21554 whole entry): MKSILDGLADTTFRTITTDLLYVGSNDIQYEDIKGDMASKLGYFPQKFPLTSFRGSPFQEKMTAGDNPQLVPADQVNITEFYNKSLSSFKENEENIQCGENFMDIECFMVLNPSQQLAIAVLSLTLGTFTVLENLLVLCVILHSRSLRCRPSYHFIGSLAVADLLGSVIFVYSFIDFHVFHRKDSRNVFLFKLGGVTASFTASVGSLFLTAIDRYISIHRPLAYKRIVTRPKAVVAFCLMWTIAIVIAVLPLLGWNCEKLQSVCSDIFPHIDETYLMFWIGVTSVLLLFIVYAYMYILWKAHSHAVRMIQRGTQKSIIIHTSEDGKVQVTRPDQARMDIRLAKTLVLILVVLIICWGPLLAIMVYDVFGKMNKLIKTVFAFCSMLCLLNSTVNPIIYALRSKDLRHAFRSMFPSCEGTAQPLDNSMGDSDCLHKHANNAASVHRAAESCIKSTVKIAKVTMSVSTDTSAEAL

| SMILES | Ki (Cannabinoid receptor 1 [1]) | Ki (Cannabinoid receptor 2 [2]) | Ki (Cannabinoid receptor 1 [3]) | Ki (Cannabinoid receptor 2 [4]) |
| --- | --- | --- | --- | --- |
| CC1=CC[C@@H]2[C@@H](C1)c1c(O)cc(C(C)(C)c3ccccc3)cc1OC2(C)C | 12.3 nM | 0.91 nM | – | – |
| CC1=CC[C@@H]2[C@@H](C1)c1c(O)cc(C3(c4ccccc4)SCCS3)cc1OC2(C)C | 17.3 nM | 17.6 nM | – | – |
| CC1=CC[C@@H]2[C@@H](C1)c1c(O)cc(C(C)(C)C3CCCCC3)cc1OC2(C)C | 0.57 nM | 0.65 nM | – | – |
| CC1=CC[C@@H]2[C@@H](C1)c1c(O)cc(Cc3ccccc3)cc1OC2(C)C | 67.6 nM | 85.9 nM | – | – |
| CC1=CC[C@@H]2[C@@H](C1)c1c(O)cc(C3(C4CCCCC4)SCCS3)cc1OC2(C)C | – | – | 1.86 nM | 1.05 nM |

Source: ChEMBL document CHEMBL1136287, “Synthesis and testing of novel phenyl substituted side-chain analogues of classical cannabinoids” (Bioorg Med Chem Lett, 2003)
